Literature values, collected in US8410056B2, “Pro-oxidant anti-cancer compounds” (priority 2006, dated 2013).

Legend:
B16(F10) = settings: B16(F10); He et al, 1997; cited from earlier work
[1] = system: neoplastic + SA mammary epithelial cells; settings: cited from earlier work
MCF7 = settings: cited from earlier work
MDA-MB-435 = settings: cited from earlier work
LNCaP, PC-3 = settings: Shiau et al, 2006; cited from earlier work

Structure (SMILES) | IC50 (B16(F10)) [µM] | IC50 [1] [µM] | IC50 (MCF7) [µM] | IC50 (MDA-MB-435) [µM] | IC50 (LNCaP, PC-3) [µM]
CC(C)=CCC/C(C)=C/CC/C(C)=C/CC[C@]1(C)CCc2cc(O)c(C)c(C)c2O1 [Compound 56, γ-tocotrienol] | 20 | 4 | – | – | –
CC(C)=CCC/C(C)=C/CC/C(C)=C/CC[C@]1(C)CCc2c(C)c(O)c(C)c(C)c2O1 [Compound 53, α-tocotrienol] | 110 | – | 14 | 210 | –
Cc1c(C)c2c(c(C)c1OC(=O)CCC(=O)O)CCC(C)(C)O2 [Compound 46] | – | – | – | – | > 100
